From ChEMBL document CHEMBL1156241, “Synthesis of a biologically active isomer of kotalanol, a naturally occurring glucosidase inhibitor” (Bioorg Med Chem, 2010) come the findings set out here.

In this experiment the target is Maltase-glucoamylase (Homo sapiens, UniProt O43451). Briefly: Inhibition of recombinant human maltase glucoamylase N-terminal catalytic domain.
Sequence of Maltase-glucoamylase (O43451 whole entry, the tested form may be a part): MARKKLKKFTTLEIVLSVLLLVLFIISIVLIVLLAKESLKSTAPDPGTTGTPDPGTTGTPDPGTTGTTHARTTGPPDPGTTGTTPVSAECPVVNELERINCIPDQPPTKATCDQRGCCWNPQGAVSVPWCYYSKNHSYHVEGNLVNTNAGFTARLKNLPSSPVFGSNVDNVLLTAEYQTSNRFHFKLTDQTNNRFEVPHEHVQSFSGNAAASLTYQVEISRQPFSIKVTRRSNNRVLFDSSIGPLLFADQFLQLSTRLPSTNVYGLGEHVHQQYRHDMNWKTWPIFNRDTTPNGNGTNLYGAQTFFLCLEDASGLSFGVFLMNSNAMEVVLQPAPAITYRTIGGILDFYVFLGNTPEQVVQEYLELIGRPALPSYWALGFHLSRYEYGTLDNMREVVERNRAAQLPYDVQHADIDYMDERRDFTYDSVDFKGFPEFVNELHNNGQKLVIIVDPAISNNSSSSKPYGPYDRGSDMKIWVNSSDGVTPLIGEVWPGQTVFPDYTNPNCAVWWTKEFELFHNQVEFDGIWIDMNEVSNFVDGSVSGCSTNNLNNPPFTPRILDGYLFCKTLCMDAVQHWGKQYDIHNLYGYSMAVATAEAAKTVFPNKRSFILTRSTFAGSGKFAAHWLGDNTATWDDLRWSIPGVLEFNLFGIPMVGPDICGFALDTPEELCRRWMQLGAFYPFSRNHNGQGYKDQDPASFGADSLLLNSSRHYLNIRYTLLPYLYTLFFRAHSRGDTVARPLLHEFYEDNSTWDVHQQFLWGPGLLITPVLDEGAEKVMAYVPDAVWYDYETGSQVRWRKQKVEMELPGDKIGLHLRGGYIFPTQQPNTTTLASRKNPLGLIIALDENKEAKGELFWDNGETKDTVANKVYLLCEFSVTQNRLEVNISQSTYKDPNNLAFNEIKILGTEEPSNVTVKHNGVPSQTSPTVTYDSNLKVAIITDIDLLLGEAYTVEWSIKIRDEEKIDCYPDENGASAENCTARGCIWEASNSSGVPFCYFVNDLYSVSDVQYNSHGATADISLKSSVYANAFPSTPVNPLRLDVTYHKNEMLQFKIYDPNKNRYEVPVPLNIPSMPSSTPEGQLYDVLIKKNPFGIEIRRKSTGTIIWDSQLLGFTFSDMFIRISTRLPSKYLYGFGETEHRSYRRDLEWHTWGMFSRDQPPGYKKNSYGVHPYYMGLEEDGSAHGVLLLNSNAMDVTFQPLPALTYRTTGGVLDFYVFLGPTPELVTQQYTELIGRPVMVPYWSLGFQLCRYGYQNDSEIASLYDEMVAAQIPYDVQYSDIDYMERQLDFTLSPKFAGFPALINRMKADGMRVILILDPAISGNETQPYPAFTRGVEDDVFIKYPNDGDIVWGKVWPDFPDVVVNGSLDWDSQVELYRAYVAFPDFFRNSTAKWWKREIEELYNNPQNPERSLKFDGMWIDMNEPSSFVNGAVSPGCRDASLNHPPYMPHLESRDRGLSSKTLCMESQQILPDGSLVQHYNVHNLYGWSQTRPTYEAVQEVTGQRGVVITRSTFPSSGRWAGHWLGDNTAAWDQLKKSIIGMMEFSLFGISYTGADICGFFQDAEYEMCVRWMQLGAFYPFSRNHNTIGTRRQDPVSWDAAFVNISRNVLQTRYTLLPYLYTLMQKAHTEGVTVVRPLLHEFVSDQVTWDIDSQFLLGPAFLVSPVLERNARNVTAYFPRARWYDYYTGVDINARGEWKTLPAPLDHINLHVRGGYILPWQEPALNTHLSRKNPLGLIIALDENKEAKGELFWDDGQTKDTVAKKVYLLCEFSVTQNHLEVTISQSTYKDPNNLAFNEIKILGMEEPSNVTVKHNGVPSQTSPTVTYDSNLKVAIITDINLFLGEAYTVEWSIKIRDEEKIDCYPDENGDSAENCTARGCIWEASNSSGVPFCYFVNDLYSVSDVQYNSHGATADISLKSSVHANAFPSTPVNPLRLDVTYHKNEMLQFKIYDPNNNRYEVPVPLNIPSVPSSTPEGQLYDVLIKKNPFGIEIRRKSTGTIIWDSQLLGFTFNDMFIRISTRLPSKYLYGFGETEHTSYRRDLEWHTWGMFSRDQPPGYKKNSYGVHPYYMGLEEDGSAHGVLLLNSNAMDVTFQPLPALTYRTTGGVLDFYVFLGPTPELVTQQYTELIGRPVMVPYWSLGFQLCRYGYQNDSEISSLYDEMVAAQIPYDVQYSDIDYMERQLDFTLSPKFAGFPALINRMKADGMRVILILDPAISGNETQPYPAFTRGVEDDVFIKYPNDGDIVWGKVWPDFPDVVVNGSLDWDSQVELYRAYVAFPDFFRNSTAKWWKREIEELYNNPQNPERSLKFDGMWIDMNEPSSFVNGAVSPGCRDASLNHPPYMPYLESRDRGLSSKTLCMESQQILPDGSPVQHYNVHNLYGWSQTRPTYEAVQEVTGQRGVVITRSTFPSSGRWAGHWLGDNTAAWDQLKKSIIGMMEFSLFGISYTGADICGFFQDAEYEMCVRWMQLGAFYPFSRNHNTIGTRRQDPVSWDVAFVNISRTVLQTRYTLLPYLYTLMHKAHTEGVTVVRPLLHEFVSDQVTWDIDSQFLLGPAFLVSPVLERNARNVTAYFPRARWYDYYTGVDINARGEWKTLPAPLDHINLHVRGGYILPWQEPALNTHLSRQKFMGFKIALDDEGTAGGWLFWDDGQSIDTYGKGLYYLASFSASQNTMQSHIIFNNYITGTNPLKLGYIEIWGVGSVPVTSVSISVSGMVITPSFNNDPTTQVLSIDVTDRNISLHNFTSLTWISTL

For orientation: Ki means a dissociation constant, usually derived from enzyme kinetics or from competition with a known ligand. In the case of `O=S(=O)([O-])O[C@@H]([C@H](O)[C@H](O)[C@H](O)CO)[C@H](O)C[S+]1C[C@@H](O)[C@H](O)[C@H]1CO` (some centres undefined), the Ki came out at 200 nM.

On to `O=S(=O)([O-])O[C@@H]([C@H](O)[C@@H](O)[C@@H](O)CO)[C@H](O)C[S+]1C[C@@H](O)[C@H](O)[C@H]1CO` (some centres undefined), for which the Ki was determined as 100 nM.

With `O=S(=O)([O-])O[C@@H]([C@H](O)[C@@H](O)[C@H](O)CO)[C@H](O)C[S+]1C[C@@H](O)[C@H](O)[C@H]1CO` (some centres undefined), the inhibition constant (Ki) was found to be 130 nM.

As for `O=S(=O)([O-])O[C@@H]([C@H](O)[C@H](O)[C@@H](O)CO)[C@H](O)C[S+]1C[C@@H](O)[C@H](O)[C@H]1CO` (some centres undefined) [KOTALANOL], the inhibition constant (Ki) is 190 nM.
